Assay results: article PMC3726336, “Product inhibition of cellulases studied with ^14C-labeled cellulose substrates” (Biotechnology for Biofuels, 2013)

Legend:
TrCel12A = test: Cellobiose effect on hydrolysis of 14C-amorphous cellulose by TrCel12A; format: biochemical, Trichoderma reesei; conditions: 35°C
Description: EGs are a diverse group of enzymes present in all efficient cellulase systems. Their best recognized function is their synergism with CBHs. Depending on the conditions, the degree of synergistic effect may be more than 10-fold. Therefore, the inhibition of the EG component may result in a drastic decrease in the rate of the synergistic hydrolysis of cellulose. The main soluble product of the EG-catalyzed cellulose hydrolysis is cellobiose, but some glucose and higher-order oligosaccharides are also produced. Here, we studied the cellobiose inhibition of the EGs TrCel7B, TrCel5A and TrCel12A with ^14C-amorphous cellulose substrate. The enzyme concentrations and hydrolysis times were adjusted so that the linear region of the time course was studied. The time courses for the hydrolysis of ^14C-amorphous cellulose by TrCel7B in the presence and absence of added cellobiose are shown in Figure 9A. For the results with TrCel5A and TrCel12A, see Additional file 1: Figure S5. […] This figure is reasonably well in line with that measured for TrCel7B on amorphous cellulose using isothermal titration calorimetry. […]
EGs were assessed on ^14C-amorphous cellulose. ^14C-amorphous cellulose (0.5 g l^-1) was incubated (with shaking at 700 rpm) with EG in 50 mM sodium acetate buffer, pH 5.0, containing BSA (0.1 g l^-1) in the presence and absence of added cellobiose. […]

TrCel7A = target: T1, TrCel7A (Trichoderma reesei, UniProt P62694); parameters: method as in PMID 22733813; conditions: read-out: IC50 for cellobiose, 14C-BC substrate, 25°C; cited from earlier work
T1 construct: TrCel7A was purified from the culture filtrate of Tr QM 9414 as described previously; made in house; host or cells: Trichoderma reesei QM 9414 culture filtrate (native producer)
T1 sequence (P62694 18-513): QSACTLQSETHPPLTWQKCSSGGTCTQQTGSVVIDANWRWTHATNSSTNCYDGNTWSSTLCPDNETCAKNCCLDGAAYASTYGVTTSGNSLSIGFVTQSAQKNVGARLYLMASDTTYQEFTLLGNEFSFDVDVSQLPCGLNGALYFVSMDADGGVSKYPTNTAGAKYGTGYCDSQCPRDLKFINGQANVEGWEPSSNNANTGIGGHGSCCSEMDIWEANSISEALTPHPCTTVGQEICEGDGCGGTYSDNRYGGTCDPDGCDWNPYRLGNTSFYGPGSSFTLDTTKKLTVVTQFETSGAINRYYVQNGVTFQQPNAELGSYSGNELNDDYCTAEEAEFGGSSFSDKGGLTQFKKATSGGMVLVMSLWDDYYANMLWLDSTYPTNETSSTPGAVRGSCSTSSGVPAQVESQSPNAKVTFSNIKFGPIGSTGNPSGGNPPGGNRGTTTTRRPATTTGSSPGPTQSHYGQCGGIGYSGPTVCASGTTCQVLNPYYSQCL

O=C[C@H](O)[C@@H](O)[C@H](O[C@@H]1O[C@H](CO)[C@@H](O)[C@H](O)[C@H]1O)[C@H](O)CO [cellobiose, Cellobiose]
IC50 (approximate, by visual inspection of Figure 9B) (TrCel12A; TrCel12A (50 nM), not accountable by Equation 5): few hundred millimolar range
Effect of cellobiose on activity (TrCel12A; TrCel12A, 75 mM cellobiose): apparent activation
IC50 (TrCel7A): 380 ± 30 µM
